Test results published in ChEMBL document CHEMBL4033734, “Synthesis of 3- and 29-substituted celastrol derivatives and structure-activity relationship studies of their cytotoxic activities” (Bioorg Med Chem Lett, 2017).

What was measured:
HeLa = test: Cytotoxic activity against human HeLa cells incubated for 48 hrs by MTT assay; type: functional, cell-based
SGC-7901 = test: Cytotoxic activity against human SGC7901 cells incubated for 48 hrs by MTT assay; type: functional, cell-based; conditions: SGC-7901, 48 h
A549 [1] = test: Cytotoxic activity against human A549 cells incubated for 48 hrs by MTT assay; type: functional, cell-based; conditions: A549, 48 h
Bel-7402 = test: Cytotoxic activity against human Bel7402 cells incubated for 48 hrs by MTT assay; type: functional, cell-based; conditions: Bel-7402, 48 h
HepG2 = test: Cytotoxic activity against human HepG2 cells incubated for 48 hrs by MTT assay; type: functional, cell-based; conditions: HepG2, 48 h
A549 [2] = test: Antitumor activity against human A549 cells xenografted in nude mouse assessed as tumor growth inhibition at 12 mg/kg, ig dosed every day; type: functional; conditions: A549, po, read-out: TGI
Mus musculus [3] = test: Toxicity in nude mouse xenografted with human A549 cells assessed as induction of mouse fatality at 12 mg/kg, ig dosed every day; type: organism-based; conditions: in vivo, po
A549 [4] = test: Antitumor activity against human A549 cells xenografted in nude mouse assessed as relative tumor volume at 12 mg/kg, ig dosed every day relative to initial tumor volume; type: functional
Mus musculus [5] = test: Toxicity in ip dosed nude mouse assessed as induction of mouse fatality; type: organism-based; conditions: in vivo
Mus musculus [6] = test: Toxicity in nude mouse xenografted with human A549 cells assessed as change in body weight at 12 mg/kg, ig dosed every day (reference value: 26.5 g); type: organism-based; conditions: in vivo, po

Row | SMILES | IC50 (HeLa) [nM] | IC50 (SGC-7901) [nM] | IC50 (A549 [1]) [nM] | IC50 (Bel-7402) [nM] | IC50 (HepG2) [nM] | inhibition in vivo at 12 mg/kg (A549 [2]) [%] | Activity (Mus musculus [3]) | fold change (FC) (A549 [4]) | Activity (Mus musculus [5]) | Activity (Mus musculus [6]) [g]
1 | CC1=C(O)C(=O)C=C2C1=CC=C1[C@@]2(C)CC[C@@]2(C)[C@@H]3C[C@](C)(C(=O)OCc4ccccc4)CC[C@]3(C)CC[C@]12C | 460 | 310 | 2330 | 200 | 800 |  |  |  |  | 
2 | CC1=C(O)C(=O)C=C2C1=CC=C1[C@@]2(C)CC[C@@]2(C)[C@@H]3C[C@](C)(C(=O)OCC(C)C)CC[C@]3(C)CC[C@]12C | 410 | 240 | 1070 | 530 | 340 |  |  |  |  | 
3 | CCCCCOC(=O)[C@]1(C)CC[C@]2(C)CC[C@]3(C)C4=CC=C5C(=CC(=O)C(O)=C5C)[C@]4(C)CC[C@@]3(C)[C@@H]2C1 | 560 | 460 | 2300 | 810 | 440 |  |  |  |  | 
4 | CC1=C(OC(=O)N2CCN(Cc3ccccc3)CC2)C(=O)C=C2C1=CC=C1[C@@]2(C)CC[C@@]2(C)[C@@H]3C[C@](C)(C(=O)OCc4ccccc4)CC[C@]3(C)CC[C@]12C | 18000 | 11700 | 8850 | 5170 | 9900 |  |  |  |  | 
5 | C=CCOC(=O)[C@]1(C)CC[C@]2(C)CC[C@]3(C)C4=CC=C5C(=CC(=O)C(O)=C5C)[C@]4(C)CC[C@@]3(C)[C@@H]2C1 | 310 | 330 | 1490 | 630 | 310 |  |  |  |  | 
6 | CC1=C(O)C(=O)C=C2C1=CC=C1[C@@]2(C)CC[C@@]2(C)[C@@H]3C[C@](C)(C(=O)O)CC[C@]3(C)CC[C@]12C [CELASTROL] | 840 | 870 | 2120 | 440 | 580 | 62 | Toxic | 0.84 | Toxic | 25.5
7 | CC1=C(OC(=O)N2CCCCC2)C(=O)C=C2C1=CC=C1[C@@]2(C)CC[C@@]2(C)[C@@H]3C[C@](C)(C(=O)OCc4ccccc4)CC[C@]3(C)CC[C@]12C | 2820 | 3040 | 12100 | 3220 | 7430 |  |  |  |  | 
8 | CCCCOC(=O)[C@]1(C)CC[C@]2(C)CC[C@]3(C)C4=CC=C5C(=CC(=O)C(O)=C5C)[C@]4(C)CC[C@@]3(C)[C@@H]2C1 | 790 | 730 | 1360 | 1010 | 1050 |  |  |  |  | 
9 | CCN1CCN(C(=O)OC2=C(C)C3=CC=C4[C@@](C)(CC[C@@]5(C)[C@@H]6C[C@](C)(C(=O)OCc7ccccc7)CC[C@]6(C)CC[C@]45C)C3=CC2=O)CC1 | 1590 | 2880 | 5910 | 2440 | 4610 |  |  |  |  | 
10 | CC1=C(OC(=O)N2CCOCC2)C(=O)C=C2C1=CC=C1[C@@]2(C)CC[C@@]2(C)[C@@H]3C[C@](C)(C(=O)OCc4ccccc4)CC[C@]3(C)CC[C@]12C | 1550 | 1780 | 9350 | 1560 | 1360 |  |  |  |  | 
11 | CC1=C(OC(=O)N(C)c2ccccc2)C(=O)C=C2C1=CC=C1[C@@]2(C)CC[C@@]2(C)[C@@H]3C[C@](C)(C(=O)OCc4ccccc4)CC[C@]3(C)CC[C@]12C | 6360 | 4310 | 14800 | 4070 | 4250 |  |  |  |  | 
12 | CC1=C(O)C(=O)C=C2C1=CC=C1[C@@]2(C)CC[C@@]2(C)[C@@H]3C[C@](C)(C(=O)OC(C)C)CC[C@]3(C)CC[C@]12C | 1750 | 470 | 3410 | 430 | 320 |  |  |  |  | 
13 | CC1=C(O)C(=O)C=C2C1=CC=C1[C@@]2(C)CC[C@@]2(C)[C@@H]3C[C@](C)(C(=O)OCc4ccc(I)cc4)CC[C@]3(C)CC[C@]12C | 1320 | 810 | 7700 | 860 | 1950 |  |  |  |  | 
14 | CC1=C(OC(=O)N2CCCCC2C)C(=O)C=C2C1=CC=C1[C@@]2(C)CC[C@@]2(C)[C@@H]3C[C@](C)(C(=O)OCc4ccccc4)CC[C@]3(C)CC[C@]12C (stereo not given in full) | 4270 | 4730 | 15000 | 5050 | 8190 |  |  |  |  | 
15 | CC(=O)N1CCN(C(=O)OC2=C(C)C3=CC=C4[C@@](C)(CC[C@@]5(C)[C@@H]6C[C@](C)(C(=O)OCc7ccccc7)CC[C@]6(C)CC[C@]45C)C3=CC2=O)CC1 | 1350 | 3640 | 7200 | 4230 | 5790 |  |  |  |  | 
16 | COC(=O)[C@]1(C)CC[C@]2(C)CC[C@]3(C)C4=CC=C5C(=CC(=O)C(O)=C5C)[C@]4(C)CC[C@@]3(C)[C@@H]2C1 [PRISTIMERIN] | 320 | 630 | 1030 | 1160 | 780 |  |  |  |  | 
17 | CC1=C(O)C(=O)C=C2C1=CC=C1[C@@]2(C)CC[C@@]2(C)[C@@H]3C[C@](C)(C(=O)OCc4cccc(Cl)c4)CC[C@]3(C)CC[C@]12C | 420 | 310 | 3250 | 370 | 870 |  |  |  |  | 
18 | CCOC(=O)COC(=O)[C@]1(C)CC[C@]2(C)CC[C@]3(C)C4=CC=C5C(=CC(=O)C(O)=C5C)[C@]4(C)CC[C@@]3(C)[C@@H]2C1 | 610 | 670 | 3890 | 300 | 760 |  |  |  |  | 
19 | CCCCCCOC(=O)[C@]1(C)CC[C@]2(C)CC[C@]3(C)C4=CC=C5C(=CC(=O)C(O)=C5C)[C@]4(C)CC[C@@]3(C)[C@@H]2C1 | 1840 | 1580 | 9310 | 2210 | 1740 |  |  |  |  | 
20 | CCC(C)OC(=O)[C@]1(C)CC[C@]2(C)CC[C@]3(C)C4=CC=C5C(=CC(=O)C(O)=C5C)[C@]4(C)CC[C@@]3(C)[C@@H]2C1 (stereo not given in full) | 360 | 360 | 1930 | 590 | 390 |  |  |  |  | 
21 | CC1=C(O)C(=O)C=C2C1=CC=C1[C@@]2(C)CC[C@@]2(C)[C@@H]3C[C@](C)(C(=O)OCc4ccc([N+](=O)[O-])cc4)CC[C@]3(C)CC[C@]12C | 410 | 510 | 2010 | 240 | 440 |  |  |  |  | 
22 | CC1=C(O)C(=O)C=C2C1=CC=C1[C@@]2(C)CC[C@@]2(C)[C@@H]3C[C@](C)(C(=O)OCOCc4ccccc4)CC[C@]3(C)CC[C@]12C | 1120 | 300 | 3780 | 510 | 370 |  |  |  |  | 
23 | CC1=C(O)C(=O)C=C2C1=CC=C1[C@@]2(C)CC[C@@]2(C)[C@@H]3C[C@](C)(C(=O)OCc4ccc(Br)cc4)CC[C@]3(C)CC[C@]12C | 870 | 810 | 3070 | 520 | 660 |  |  |  |  | 
24 | CC1=C(O)C(=O)C=C2C1=CC=C1[C@@]2(C)CC[C@@]2(C)[C@@H]3C[C@](C)(C(=O)OCc4ccc(C)cc4)CC[C@]3(C)CC[C@]12C | 1050 | 700 | 3120 | 630 | 430 |  |  |  |  | 
25 | CCOC(=O)[C@]1(C)CC[C@]2(C)CC[C@]3(C)C4=CC=C5C(=CC(=O)C(O)=C5C)[C@]4(C)CC[C@@]3(C)[C@@H]2C1 | 830 | 240 | 1440 | 920 | 490 |  |  |  |  | 
26 | CCCOC(=O)[C@]1(C)CC[C@]2(C)CC[C@]3(C)C4=CC=C5C(=CC(=O)C(O)=C5C)[C@]4(C)CC[C@@]3(C)[C@@H]2C1 | 1380 | 470 | 2150 | 410 | 280 |  |  |  |  | 
